Results as given in PubChem BioAssay AID2060890 (Molecular Pharmacology Branch, DTP, NCI, 2025).

Tested on: LG0703-F948-PDC complex spheroid viability
Assay: Anticancer human tumor LG0703-F948-PDC patient-derived lung adenocarcinoma cell line growth inhibition [RAS]
Settings: for IC50: curve of first compound; for viability, T/C: stronger effect = lower value; active = viability on the fitted dose curve at most 10% of control; inactive = the rest
In short: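 Tumour cells grown as complex spheroids with HUVEC endothelial cells and mesenchymal stem cells, treated with RAS pathway inhibitor combinations. Each agent spans half-log steps from near clinical Cmax, or 10 microM where Cmax is unknown.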

[1] = second compound 0.000949 µM, first compound 0.0316 µM
[2] = second compound 0.000949 µM, first compound 0.1 µM
[3] = second compound 0.000949 µM, first compound 0.316 µM
[4] = second compound 0.000949 µM, first compound 1 µM
[5] = second compound 0.003 µM, first compound 0.0316 µM
[6] = second compound 0.003 µM, first compound 0.1 µM
[7] = second compound 0.003 µM, first compound 0.316 µM
[8] = second compound 0.003 µM, first compound 1 µM
[9] = second compound 0.00949 µM, first compound 0.0316 µM
[10] = second compound 0.00949 µM, first compound 0.1 µM
[11] = second compound 0.00949 µM, first compound 0.316 µM
[12] = second compound 0.00949 µM, first compound 1 µM
[13] = second compound 0.03 µM, first compound 0.0316 µM
[14] = second compound 0.03 µM, first compound 0.1 µM
[15] = second compound 0.03 µM, first compound 0.316 µM
[16] = second compound 0.03 µM, first compound 1 µM
[17] = second compound 0.0949 µM, first compound 0.0316 µM
[18] = second compound 0.0949 µM, first compound 0.1 µM
[19] = second compound 0.0949 µM, first compound 0.316 µM
[20] = second compound 0.0949 µM, first compound 1 µM
[21] = second compound 0.3 µM, first compound 0.0316 µM
[22] = second compound 0.3 µM, first compound 0.1 µM
[23] = second compound 0.3 µM, first compound 0.316 µM
[24] = second compound 0.3 µM, first compound 1 µM
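Also: spheroids exposed to agents for 7 days.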
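For viability, T/C in this document: 100% = DMSO vehicle wells.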

CC1(O)CCCC1n1c(=O)c(C(F)F)cc2cnc(NC3CCN(S(C)(=O)=O)CC3)nc21 (centres undefined) + CCn1c(-c2cccnc2C(C)OC)c2c3cc(ccc31)N1CCOC(CC(NC(=O)C(C(C)C)N(C)C(=O)C3(F)CCN(C(=O)C#CC(C)(C)N(C)C)CC3)C(=O)N3CCCC(N3)C(=O)OCC(C)(C)C2)C1
4.12 µM: IC50 (second compound 0.3 µM)
inactive: viability, T/C [1] 112% | viability, T/C [2] 89.6% | viability, T/C [3] 97.3% | viability, T/C [4] 84.6% | viability, T/C (second compound 0.000949 µM, first compound 3.16 µM) 85.4% | viability, T/C (second compound 0.000949 µM, first compound 10 µM) 50% | viability, T/C [5] 114% | viability, T/C [6] 90.7% | viability, T/C [7] 108% | viability, T/C [8] 93.5% | viability, T/C (second compound 0.003 µM, first compound 3.16 µM) 82.2% | viability, T/C (second compound 0.003 µM, first compound 10 µM) 46.5% | viability, T/C [9] 88.9% | viability, T/C [10] 114% | viability, T/C [11] 94.1% | viability, T/C [12] 86.4% | viability, T/C (second compound 0.00949 µM, first compound 3.16 µM) 87.5% | viability, T/C (second compound 0.00949 µM, first compound 10 µM) 47.9% | viability, T/C [13] 112% | viability, T/C [14] 90.4% | viability, T/C [15] 90% | viability, T/C [16] 84.4% | viability, T/C (second compound 0.03 µM, first compound 3.16 µM) 87.8% | viability, T/C (second compound 0.03 µM, first compound 10 µM) 51.4% | viability, T/C [17] 90.5% | viability, T/C [18] 99.6% | viability, T/C [19] 85.8% | viability, T/C [20] 75.5% | viability, T/C (second compound 0.0949 µM, first compound 3.16 µM) 78.6% | viability, T/C (second compound 0.0949 µM, first compound 10 µM) 36% | viability, T/C [21] 54.8% | viability, T/C [22] 56.4% | viability, T/C [23] 58.2% | viability, T/C [24] 57.4% | viability, T/C (second compound 0.3 µM, first compound 3.16 µM) 62.3% | viability, T/C (second compound 0.3 µM, first compound 10 µM) 23.9%
6.58 µM: IC50 (second compound 0.0949 µM)
> 10 µM: IC50 (second compound 0.000949 µM) | IC50 (second compound 0.03 µM)
9.07 µM: IC50 (second compound 0.003 µM)
9.59 µM: IC50 (second compound 0.00949 µM)

CCN1CCN(Cc2ccc(Nc3ncc(F)c(-c4cc(F)c5nc(C)n(C(C)C)c5c4)n3)nc2)CC1 + CCn1c(-c2cc(N3CCN(C)CC3)cnc2C(C)OC)c2c3cc(ccc31)-c1csc(n1)CC(NC(=O)C1CC1C)C(=O)N1CCCC(N1)C(=O)OCC(C)(C)C2
inactive: viability, T/C (second compound 0.000949 µM, first compound 0.00316 µM) 82% | viability, T/C (second compound 0.000949 µM, first compound 0.01 µM) 68% | viability, T/C [1] 60.8% | viability, T/C [2] 68.2% | viability, T/C [3] 63.9% | viability, T/C [4] 52% | viability, T/C (second compound 0.003 µM, first compound 0.00316 µM) 58.2% | viability, T/C (second compound 0.003 µM, first compound 0.01 µM) 49.1% | viability, T/C [5] 47.7% | viability, T/C [6] 53.2% | viability, T/C [7] 57% | viability, T/C [8] 48.9% | viability, T/C (second compound 0.00949 µM, first compound 0.00316 µM) 26.1% | viability, T/C (second compound 0.00949 µM, first compound 0.01 µM) 24.8% | viability, T/C [9] 28.4% | viability, T/C [10] 22% | viability, T/C [11] 31.7% | viability, T/C [12] 34.5% | viability, T/C (second compound 0.03 µM, first compound 0.00316 µM) 17% | viability, T/C (second compound 0.03 µM, first compound 0.01 µM) 14.6% | viability, T/C [13] 14.7% | viability, T/C [14] 17% | viability, T/C [15] 18.6% | viability, T/C [16] 26.2% | viability, T/C (second compound 0.0949 µM, first compound 0.00316 µM) 10.1% | viability, T/C (second compound 0.0949 µM, first compound 0.01 µM) 11.1% | viability, T/C [17] 10.2% | viability, T/C [18] 11.3% | viability, T/C [19] 14.9% | viability, T/C [20] 23.9% | viability, T/C (second compound 0.3 µM, first compound 0.00316 µM) 9.56% | viability, T/C (second compound 0.3 µM, first compound 0.01 µM) 9.57% | viability, T/C [21] 8.56% | viability, T/C [22] 10.3% | viability, T/C [23] 13.5% | viability, T/C [24] 18.3%
> 1 µM: IC50 (second compound 0.000949 µM) | IC50 (second compound 0.003 µM)
< 0.00316 µM: IC50 (second compound 0.00949 µM) | IC50 (second compound 0.03 µM) | IC50 (second compound 0.0949 µM) | IC50 (second compound 0.3 µM)
